The target in the assay is T1, ΔF508-CFTR (Homo sapiens, UniProt P13569, DEL508-508).
T1 construct: expressed in transfected cells
Put plainly: Membrane potential optical (FRET/VIPR) assay, identification of potentiator compounds. In kind it is cell-based. The settings on record: Table 3, assay not given; for % Activity: relative efficacy. In short, it runs like this:
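Double-addition potentiator screen: compound delivered in gluconate-substituted Cl^--free medium, membrane potential followed via CC2-DMPE/DiSBAC2(3) FRET on VIPR. Cells were ΔF508-CFTR-expressing NIH3T3 mouse fibroblasts, held 2 h at 37° C. then 24 h at 27° C. before assay.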

Where only a bound is given, the exact number is not on record here.

22 compounds from patent publication US8614327B2 (Vertex Pharmaceuticals Incorporated, priority 2004, dated 2013) can be followed below.

T1 sequence (P13569 with tags, fused parts or gaps DEL508-508): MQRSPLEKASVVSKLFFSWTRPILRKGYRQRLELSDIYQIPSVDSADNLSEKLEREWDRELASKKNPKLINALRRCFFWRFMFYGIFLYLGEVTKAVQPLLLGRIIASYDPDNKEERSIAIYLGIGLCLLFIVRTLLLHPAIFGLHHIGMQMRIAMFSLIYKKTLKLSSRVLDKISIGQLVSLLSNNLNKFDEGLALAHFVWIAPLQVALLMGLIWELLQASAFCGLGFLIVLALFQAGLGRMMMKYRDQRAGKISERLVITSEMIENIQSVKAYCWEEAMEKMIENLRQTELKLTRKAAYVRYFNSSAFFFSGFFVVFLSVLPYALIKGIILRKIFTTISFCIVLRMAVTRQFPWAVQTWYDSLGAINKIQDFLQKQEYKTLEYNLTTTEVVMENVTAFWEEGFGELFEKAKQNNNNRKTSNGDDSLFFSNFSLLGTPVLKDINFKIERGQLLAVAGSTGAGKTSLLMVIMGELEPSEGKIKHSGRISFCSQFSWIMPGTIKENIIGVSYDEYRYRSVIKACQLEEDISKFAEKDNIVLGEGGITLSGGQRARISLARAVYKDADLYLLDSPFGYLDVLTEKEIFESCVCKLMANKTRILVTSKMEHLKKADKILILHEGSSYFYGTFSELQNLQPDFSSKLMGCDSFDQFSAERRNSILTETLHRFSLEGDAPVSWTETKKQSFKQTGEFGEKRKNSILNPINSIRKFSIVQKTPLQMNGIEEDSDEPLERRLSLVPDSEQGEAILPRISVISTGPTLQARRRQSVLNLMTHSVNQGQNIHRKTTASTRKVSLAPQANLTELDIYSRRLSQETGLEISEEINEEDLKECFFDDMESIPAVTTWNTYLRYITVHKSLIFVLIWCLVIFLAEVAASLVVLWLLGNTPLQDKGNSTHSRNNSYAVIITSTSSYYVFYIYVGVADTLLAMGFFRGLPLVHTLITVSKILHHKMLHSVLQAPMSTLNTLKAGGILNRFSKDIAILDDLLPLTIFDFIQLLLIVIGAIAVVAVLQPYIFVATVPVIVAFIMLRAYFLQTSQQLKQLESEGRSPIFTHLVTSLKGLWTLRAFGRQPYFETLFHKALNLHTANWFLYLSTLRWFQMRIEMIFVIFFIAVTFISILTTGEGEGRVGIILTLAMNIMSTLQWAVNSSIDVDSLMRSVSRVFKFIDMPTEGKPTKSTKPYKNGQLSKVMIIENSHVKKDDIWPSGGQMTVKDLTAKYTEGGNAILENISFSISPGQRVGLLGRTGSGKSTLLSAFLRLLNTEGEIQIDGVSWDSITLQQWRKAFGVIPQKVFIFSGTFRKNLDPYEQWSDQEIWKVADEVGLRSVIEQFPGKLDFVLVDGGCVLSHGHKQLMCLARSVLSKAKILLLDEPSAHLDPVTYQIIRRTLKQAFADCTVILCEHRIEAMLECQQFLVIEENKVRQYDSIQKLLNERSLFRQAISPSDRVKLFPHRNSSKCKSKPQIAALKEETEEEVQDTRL

For the compound `O=C(Nc1ccc(N2CCC2)cc1C(F)(F)F)c1c[nH]c2ccccc2c1=O` [Compound 689, N-[4-azetidin-1-yl-2-(trifluoromethyl)phenyl]-4-oxo-1H-quinoline-3-carboxamide], the EC50 (as a rule, the concentration needed to bring the measured effect to its halfway point) was less than 10 µM and the “% Activity” value was “++ (between 25% to 100%)”.
On the same counts, the results for `COC(=O)c1c(NC(=O)c2c[nH]c3ccccc3c2=O)csc1C(C)(C)C` [Compound 690, methyl 4-[(4-oxo-1H-quinolin-3-yl)carbonylamino]-2-tert-butyl-thiophene-3-carboxylate] are less than 10 µM and “++ (between 25% to 100%)”.
`COc1cc(NC(=O)c2c[nH]c3ccccc3c2=O)cc(C(F)(F)F)c1` [Compound 691, N-[3-methoxy-5-(trifluoromethyl)phenyl]-4-oxo-1H-quinoline-3-carboxamide]: the EC50 was less than 10 µM and the “% Activity” value is “++ (between 25% to 100%)”.
As for `O=C(Nc1ccccc1-c1ccccn1)c1c[nH]c2ccccc2c1=O` [Compound 692, 4-oxo-N-[2-(2-pyridyl)phenyl]-1H-quinoline-3-carboxamide], the EC50 is less than 10 µM and the “% Activity” value is “++ (between 25% to 100%)”.
On the same counts, the results for `O=C(Nc1ccc2cc(C(F)(F)F)[nH]c2c1)c1c[nH]c2cccc(O)c2c1=O` [Compound 693, 5-hydroxy-4-oxo-N-[2-(trifluoromethyl)-1H-indol-6-yl]-1H-quinoline-3-carboxamide] are less than 10 µM and “++ (between 25% to 100%)”.
On the same counts, the results for `CC(C)(C)c1cc(C(C)(C)C)c(NC(=O)c2c[nH]c3cc(OC(F)(F)F)ccc3c2=O)cc1O` [Compound 694, N-(5-hydroxy-2,4-ditert-butyl-phenyl)-4-oxo-7-(trifluoromethoxy)-1H-quinoline-3-carboxamide] are less than 10 µM and “++ (between 25% to 100%)”.
The corresponding values for `O=C(Nc1cc(O)c(Cl)cc1F)c1c[nH]c2ccccc2c1=O` [Compound 695, N-(4-chloro-2-fluoro-5-hydroxy-phenyl)-4-oxo-1H-quinoline-3-carboxamide] are less than 10 µM and “++ (between 25% to 100%)”.
In the case of `O=C(Nc1ccc(OC(F)(F)F)c(N2CCCCC2)c1)c1c[nH]c2ccccc2c1=O` [Compound 696, 4-oxo-N-[3-(1-piperidyl)-4-(trifluoromethoxy)phenyl]-1H-quinoline-3-carboxamide], the EC50 is less than 10 µM and the “% Activity” value is “++ (between 25% to 100%)”.
As for `Cc1cccc2[nH]cc(C(=O)Nc3ccc(N4CCC[C@H]4C)cc3C(F)(F)F)c(=O)c12` [Compound 697, (R)-5-methyl-N-(4-(2-methylpyrrolidin-1-yl)-2-(trifluoromethyl)phenyl)-4-oxo-1,4-dihydroquinoline-3-carboxamide], the EC50 was less than 10 µM and the “% Activity” value is “++ (between 25% to 100%)”.
For the compound `O=C(Nc1ccc(N2CCC[C@@H]2C(=O)O)cc1C(F)(F)F)c1c[nH]c2ccccc2c1=O` [Compound 698, (R)-1-[4-[(4-oxo-1H-quinolin-3-yl)carbonylamino]-3-(trifluoromethyl)phenyl]pyrrolidine-2-carboxylic acid], the EC50 is less than 10 µM and the “% Activity” value is reported as “++ (between 25% to 100%)”.
`O=C(Nc1ccc(C(F)(F)F)c(O)c1)c1c[nH]c2cccc(O)c2c1=O` [Compound 700, 5-hydroxy-N-[3-hydroxy-4-(trifluoromethyl)phenyl]-4-oxo-1H-quinoline-3-carboxamide]: the EC50 was less than 10 µM and the “% Activity” value was “++ (between 25% to 100%)”.
In the case of `Cc1cccc2[nH]cc(C(=O)Nc3ccc(OC(C)C)c(O)c3)c(=O)c12` [Compound 701, N-(3-hydroxy-4-isopropoxy-phenyl)-5-methyl-4-oxo-1H-quinoline-3-carboxamide], the EC50 is less than 10 µM and the “% Activity” value is reported as “++ (between 25% to 100%)”.
In the case of `CC(C)(C)c1cc(C(C)(C)C)c(NC(=O)c2c[nH]c3ccc(O)cc3c2=O)cc1O` [Compound 702, 6-hydroxy-N-(5-hydroxy-2,4-ditert-butyl-phenyl)-4-oxo-1H-quinoline-3-carboxamide], the EC50 was less than 10 µM and the “% Activity” value is reported as “++ (between 25% to 100%)”.
In the case of `Cc1ccc2c(=O)c(C(=O)Nc3cc4[nH]ccc4cc3C(C)(C)C)c[nH]c2c1` [Compound 704, 7-methyl-4-oxo-N-(5-tert-butyl-1H-indol-6-yl)-1H-quinoline-3-carboxamide], the EC50 was less than 10 µM and the “% Activity” value was “++ (between 25% to 100%)”.
In the case of `O=C(Nc1ccc(N2CC[C@@H](O)C2)cc1C(F)(F)F)c1c[nH]c2ccccc2c1=O` [Compound 705, (R)-N-(4-(3-hydroxypyrrolidin-1-yl)-2-(trifluoromethyl)phenyl)-4-oxo-1,4-dihydroquinoline-3-carboxamide], the concentration giving a half-maximal response (EC50) was less than 10 µM and the “% Activity” value is “++ (between 25% to 100%)”.
On to `CC1(c2cc(F)c(NC(=O)c3c[nH]c4cccc(C(F)(F)F)c4c3=O)cc2O)CCCCC1` [Compound 706, N-[2-fluoro-5-hydroxy-4-(1-methylcyclohexyl)-phenyl]-4-oxo-5-(trifluoromethyl)-1H-quinoline-3-carboxamide], for which the EC50 was less than 10 µM and the “% Activity” value is given as “+++ (>100%)”.
In the case of `CC(C)(C)c1ccc(NC(=O)c2c[nH]c3ccccc3c2=O)cc1N1CCCC1` [Compound 707, 4-oxo-N-(3-pyrrolidin-1-yl-4-tert-butyl-phenyl)-1H-quinoline-3-carboxamide], the EC50 is less than 10 µM and the “% Activity” value is “++ (between 25% to 100%)”.
As for `O=C(Nc1csc(C(F)(F)F)c1-c1ccccc1)c1c[nH]c2ccccc2c1=O` [Compound 708, 4-oxo-N-[4-phenyl-5-(trifluoromethyl)-3-thienyl]-1H-quinoline-3-carboxamide], the 50% effective concentration (EC50) was less than 10 µM and the “% Activity” value is listed as “++ (between 25% to 100%)”.
On to `COc1cc2c(=O)c(C(=O)Nc3cc(O)c(C(C)(C)C)cc3C(C)(C)C)c[nH]c2cc1F` [Compound 709, 7-fluoro-N-(5-hydroxy-2,4-ditert-butyl-phenyl)-6-methoxy-4-oxo-1H-quinoline-3-carboxamide], for which the 50% effective concentration (EC50) is less than 10 µM and the “% Activity” value is “+++ (>100%)”.
On the same counts, the results for `CN1CCC(C)(C)c2ccc(NC(=O)c3c[nH]c4ccccc4c3=O)cc21` [Compound 710, 4-oxo-N-(1,4,4-trimethyl-2,3-dihydroquinolin-7-yl)-1H-quinoline-3-carboxamide] are less than 10 µM and “++ (between 25% to 100%)”.
Take `O=C(Nc1cc(C(=O)O)c2cc[nH]c2c1)c1c[nH]c2ccccc2c1=O` [Compound 711, 6-[(4-oxo-1H-quinolin-3-yl)carbonylamino]-1H-indole-4-carboxylic acid]: the EC50 was less than 10 µM and the “% Activity” value is “++ (between 25% to 100%)”.
The corresponding values for `C[C@H]1CCCCN1c1ccc(NC(=O)c2c[nH]c3ccccc3c2=O)c(C(F)(F)F)c1` [Compound 713, (S)-N-(4-(2-methylpiperidin-1-yl)-2-(trifluoromethyl)phenyl)-4-oxo-1,4-dihydroquinoline-3-carboxamide] are less than 10 µM and “+++ (>100%)”.
